Consider one compound from ChEMBL document CHEMBL4825753 (J Med Chem, 2021).

This series is described as follows: Lipophilicity, log D of the compound at pH 7.4. The note with it: buffer. Format: physicochemical.

The structures appear in SMILES notation.

The compound `CN(Cc1ccc2nccn2c1)c1nnc(-c2ccc(-c3ccccc3Cl)cc2)o1` gave a log distribution coefficient (logD) of 4.7.
